From patent US20240217951A1, “PCSK9 INHIBITORS AND METHODS OF USE THEREOF” (AstraZeneca AB, priority 2022, published 2024)

Legend:
human PCSK9 = target: T1, human PCSK9 (Homo sapiens, UniProt Q8NBP7); test: Assay 2 - Biophysical human PCSK9 assay (SPR, Biacore); type: binding; settings: geometric mean; SPR at 30° C; read-out: Assay 2 (PCSK9 BIAcore DBA CR) GMean Kd
T1 construct: biotinylated human PCSK9 (31-692)-Avi-His6; His6 (C)
Protocol: Assay 2—Biophysical Human PCSK9 Assay
The SPR binding experiments were performed on a Biacore S200 optical biosensor unit at 30° C. A Series S Sensor Chip SA that is designed to bind biotinylated molecules for interaction analysis in Biacore systems was equilibrated at room temperature prior to use. The running buffer for protein tethering and subsequent ligand binding experiments was 10 mM HEPES pH 7.4, 150 mM NaCl, 0.05% (v/v) Tween 20 pH 7.4.
For the surface tethering of PCSK9, biotinylated human PCSK9 (31-692)-Avi-His6 at a concentration of 0.5 mg/mL was used. Prior to the surface tethering, the surface was exposed to a solution of 50 mM NaOH, 500 mM NaCl via 3 consecutive injections of this solution with a contact time of 60 s and a flowrate of 10 μL min^−1 to remove non-conjugated streptavidin. The PCSK9 protein was diluted to a concentration of 20 μg/mL using running buffer and injected with a contact time of 180-300 s and a flowrate of 10 μL min^−1 over a single flow channel (typically flow channel 2 or flow channel 4) with the aim to achieve protein capture levels of >5000 response units (RU). Remaining biotin binding sites were blocked via 2 consecutive injections of a 10 μM D-biotin solution in running buffer with a contact time of 60 s and a flowrate of 10 μL min^−1 over all flow-channels. Flow-channels 1 and 3 typically served as a reference surface throughout the subsequent binding experiments.
The binding experiments were all performed at a flow rate of 30 PL min^−1 and by employing the method of single-cycle kinetics. This approach involves the sequential injection of a compound concentration series without regeneration steps. A contact time between 90-150 s was selected, which was followed by a 40 min dissociation phase to allow for a proper estimation of the dissociation rate constant. Test compounds were delivered in DMSO at a concentration of 10 mM and a digital dispenser HP D300 was used to set up the compound concentration series using 6 concentrations. The tested concentrations have been 30, 100, 300, 1000, 3000 and 10000 nM. Prior to injecting any compound, the surfaces were equilibrated by injecting running buffer over them in three separate pulses. The data collection rate was set to 10 Hz.
The raw sensorgrams of the compound injections were first subjected to reference subtraction (subtracting the signal from flow channel 1 and/or 3 from the signal from channels 2 and/or 4 respectively) and then blank subtraction (subtracting the signal from injecting DMSO controls from the reference subtracted data). The resulting double-referenced sensorgrams were then fitted using a 1:1 binding interaction model using the manufactures software package to extract kinetic- and affinity data. Active compounds have been defined by creating a detectable binding signal at the highest compound concentration ([…]) of 3 RUs. Kinetic- and affinity data on active compounds are only provided for those compounds where the binding signal at the highest compound concentration ([…]) is 50% of the theoretical maximum binding signal for a 1:1 binding interaction (Rmax, typically between 15-20 RUs) in order to enable a proper fitting of the data.

PCSK9 = PCSK9 (Homo sapiens, UniProt Q8NBP7, G670E/V474I); test: Assay 3 - PCSK9 LDL-C uptake assay in HepG2 cells; type: cell-based; set-up: TEV cleavage site (C); His6 (C); host or cells: added to HepG2 cells (ATCC #HB-8065); settings: 125 nM PCSK9, pHrodo Red-LDL, read-out: Assay 3 LDL uptake potency
Sequence of PCSK9 (Q8NBP7 with tags, fused parts or gaps V474I/G670E): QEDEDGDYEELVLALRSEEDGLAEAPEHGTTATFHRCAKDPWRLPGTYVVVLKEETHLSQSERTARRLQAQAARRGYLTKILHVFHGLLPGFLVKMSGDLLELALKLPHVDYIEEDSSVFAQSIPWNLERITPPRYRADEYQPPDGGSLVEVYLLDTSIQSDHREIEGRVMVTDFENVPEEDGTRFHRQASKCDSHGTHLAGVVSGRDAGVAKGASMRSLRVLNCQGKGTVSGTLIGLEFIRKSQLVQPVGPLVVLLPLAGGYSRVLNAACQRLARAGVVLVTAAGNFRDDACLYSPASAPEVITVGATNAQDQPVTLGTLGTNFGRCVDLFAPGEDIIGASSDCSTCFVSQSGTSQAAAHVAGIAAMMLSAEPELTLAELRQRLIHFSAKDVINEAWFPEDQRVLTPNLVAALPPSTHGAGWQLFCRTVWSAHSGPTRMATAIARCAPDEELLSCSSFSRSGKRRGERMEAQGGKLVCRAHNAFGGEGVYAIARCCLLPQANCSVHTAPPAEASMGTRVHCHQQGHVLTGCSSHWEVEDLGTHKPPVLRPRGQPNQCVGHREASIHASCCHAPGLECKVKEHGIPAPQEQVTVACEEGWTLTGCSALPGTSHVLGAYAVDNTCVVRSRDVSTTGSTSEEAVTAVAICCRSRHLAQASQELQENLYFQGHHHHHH
Summary of the method: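 HepG2 cells seeded 24 h, then given compound (half-log series, top 10 μM) plus PCSK9 at 125 nM final for 24 h at 37 °C. pHrodo Red-LDL (6 μg/mL) added; uptake imaged at 4 h and 24 h. Signal normalized between DMSO and 100 nM evolocumab controls, four-parameter logistic fit.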

T1 sequence (Q8NBP7 31-692): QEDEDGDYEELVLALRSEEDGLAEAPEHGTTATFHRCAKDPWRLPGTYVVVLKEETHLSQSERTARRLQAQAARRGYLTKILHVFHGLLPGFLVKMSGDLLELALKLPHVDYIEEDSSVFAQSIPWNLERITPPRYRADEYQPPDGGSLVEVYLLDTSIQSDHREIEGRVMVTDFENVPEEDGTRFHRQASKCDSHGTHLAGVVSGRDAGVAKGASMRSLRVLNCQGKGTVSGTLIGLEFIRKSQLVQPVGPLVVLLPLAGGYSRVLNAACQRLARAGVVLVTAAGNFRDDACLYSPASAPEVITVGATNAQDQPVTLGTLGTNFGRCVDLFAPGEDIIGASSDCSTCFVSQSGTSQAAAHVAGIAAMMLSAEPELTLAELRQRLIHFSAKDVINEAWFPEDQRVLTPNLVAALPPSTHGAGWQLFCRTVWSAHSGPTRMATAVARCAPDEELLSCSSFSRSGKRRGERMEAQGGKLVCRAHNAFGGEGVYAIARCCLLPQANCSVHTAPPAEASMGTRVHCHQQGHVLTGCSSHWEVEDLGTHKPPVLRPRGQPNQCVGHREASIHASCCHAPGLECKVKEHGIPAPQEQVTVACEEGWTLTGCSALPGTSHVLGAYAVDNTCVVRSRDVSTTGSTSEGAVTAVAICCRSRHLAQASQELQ

Row | SMILES | Kd (human PCSK9) | EC50 (PCSK9)
1 | Cc1cnc(N[C@H]2CC[C@H](Nc3ccc(-n4c(=O)n(C)c5cccnc54)cn3)C2)cn1 [Example 42, 1-Methyl-3-(6-(((1S,3S)-3-((5-methylpyrazin-2-yl)amino)cyclopentyl)amino)pyridin-3-yl)-1,3-dihydro-2H-imidazo[4,5-b]pyridin-2-one] | 0.005 µM | 0.2 µM
2 | Cc1cnc(N[C@H]2CC[C@H](Nc3ccc(-n4c(=O)n(C)c5ccccc54)cn3)C2)cn1 [Example 45, 1-Methyl-3-(6-(((1S,3S)-3-((5-methylpyrazin-2-yl)amino)cyclopentyl)amino)pyridin-3-yl)-1,3-dihydro-2H-benzo[d]imidazol-2-one] | 0.0015 µM | 0.2 µM
3 | Cc1cnc(N[C@H]2CC[C@H](Nc3ccc(-n4cccc(C#N)c4=O)cn3)C2)cn1 [Example 103, 6′-(((1S,3S)-3-((5-Methylpyrazin-2-yl)amino)cyclopentyl)amino)-2-oxo-2H-[1,3′-bipyridine]-3-carbonitrile] | 0.0047 µM | 0.2 µM
4 | Cc1cnc(N[C@H]2CC[C@H](Nc3ccc(-n4cccc(Cl)c4=O)cn3)C2)cn1 [Example 47, 3-Chloro-6′-(((1S,3S)-3-((5-methylpyrazin-2-yl)amino)cyclopentyl)amino)-2H-[1,3′-bipyridin]-2-one] | 0.0019 µM | 0.1 µM
5 | COc1cccn(-c2ccc(N[C@H]3CC[C@H](Nc4cnc(C5CC5)cn4)C3)nc2)c1=O [Example 106, 6′-(((1S,3S)-3-((5-Cyclopropylpyrazin-2-yl)amino)cyclopentyl)amino)-3-methoxy-2H-[1,3′-bipyridin]-2-one] | 0.003 µM | 0.2 µM
6 | COc1ccnn(-c2ccc(N[C@H]3CC[C@H](Nc4cnc(C)cn4)C3)nc2)c1=O [Example 226, 4-Methoxy-2-(6-(((1S,3S)-3-((5-methylpyrazin-2-yl)amino)cyclopentyl)amino)pyridin-3-yl)pyridazin-3 (2H)-one] | 0.0056 µM | 0.2 µM
7 | COc1cccn(-c2ccc(N[C@H]3CC[C@H](Nc4cnc(C)cn4)C3)nc2)c1=O [Example 36, 3-Methoxy-6′-(((1S,3S)-3-((5-methylpyrazin-2-yl)amino)cyclopentyl)amino)-2H-[1,3′-bipyridin]-2-one] | 0.0053 µM | 0.1 µM
8 | Cn1c(=O)n(-c2ccc(N[C@H]3CC[C@H](Nc4cnc(OC(F)F)cn4)C3)nc2)c2ccccc21 [Example 82, 1-(6-(((1S,3S)-3-((5-(Difluoromethoxy)pyrazin-2-yl)amino)cyclopentyl)amino)pyridin-3-yl)-3-methyl-1,3-dihydro-2H-benzo[d]imidazol-2-one] | 0.0041 µM | 0.2 µM
9 | Cn1c(=O)n(-c2ccc(N[C@H]3CC[C@H](Nc4cnc(Cl)cn4)C3)nc2)c2ccccc21 [Example 27, 1-(6-(((1S,3S)-3-((5-Chloropyrazin-2-yl)amino)cyclopentyl)amino)pyridin-3-yl)-3-methyl-1,3-dihydro-2H-benzo[d]imidazol-2-one] | 0.0031 µM | 0.1 µM
10 | Cc1cccn(-c2ccc(N[C@H]3CC[C@H](Nc4cnc(Cl)cn4)C3)nc2)c1=O [Example 24, 6′-(((1S,3S)-3-((5-Chloropyrazin-2-yl)amino)cyclopentyl)amino)-3-methyl-2H-[1,3′-bipyridin]-2-one] | 0.004 µM | 0.4 µM
11 | COc1cccn(-c2ccc(N[C@H]3CC[C@H](Nc4cnc(OC(F)F)cn4)C3)nc2)c1=O [Example 94, 6′-(((1S,3S)-3-((5-(Difluoromethoxy)pyrazin-2-yl)amino)cyclopentyl)amino)-3-methoxy-2H-[1,3′-bipyridin]-2-one] | 0.012 µM | 0.3 µM
12 | O=c1ccc(-c2ccc(F)cc2)cn1-c1ccc(N[C@H]2CC[C@H](Nc3cnc(Cl)cn3)C2)nc1 [Example 32, 6′-(((1S,3S)-3-((5-Chloropyrazin-2-yl)amino)cyclopentyl)amino)-5-(4-fluorophenyl)-2H-[1,3′-bipyridin]-2-one] | 0.02 µM | 0.2 µM
13 | O=c1ccc2ccccc2n1-c1ccc(N[C@H]2CC[C@H](Nc3cnc(Cl)cn3)C2)nc1 [Example 35, 1-(6-(((1S,3S)-3-((5-Chloropyrazin-2-yl)amino)cyclopentyl)amino)pyridin-3-yl)quinolin-2 (1H)-one] | 0.003 µM | 0.1 µM
14 | Cc1cnc(N[C@H]2CC[C@H](Nc3ccc(-n4c(=O)ccc5cccnc54)cn3)C2)cn1 [Example 37, 1-(6-(((1S,3S)-3-((5-Methylpyrazin-2-yl)amino)cyclopentyl)amino)pyridin-3-yl)-1,8-naphthyridin-2(1 H)-one] | 0.0055 µM | 0.2 µM
15 | O=C(O)c1ccc(=O)n(-c2ccc(N[C@H]3CC[C@H](Nc4cnc(Cl)cn4)C3)nc2)c1 [Example 33, 6′-(((1S,3S)-3-((5-Chloropyrazin-2-yl)amino)cyclopentyl)amino)-2-oxo-2H-[1,3′-bipyridine]-5-carboxylic acid] | 0.013 µM | 0.1 µM
16 | Cc1cnc(N[C@H]2CC[C@H](Nc3ccc(-n4cccc(C)c4=O)cn3)C2)cn1 [Example 44, 3-Methyl-6′-(((1S,3S)-3-((5-methylpyrazin-2-yl)amino)cyclopentyl)amino)-2H-[1,3′-bipyridin]-2-one] | 0.0045 µM | 0.3 µM
17 | Cc1cnc(N[C@H]2CC[C@H](Nc3ccc(-n4c(=O)[nH]c5ccccc54)cn3)C2)cn1 [Example 46, 1-(6-(((1S,3S)-3-((5-Methylpyrazin-2-yl)amino)cyclopentyl)amino)pyridin-3-yl)-1,3-dihydro-2H-benzo[d]imidazol-2-one] | 0.0047 µM | 0.7 µM
